How the values were obtained:
[1] = target: human DGKα (Homo sapiens (Human), UniProt P23743); experiment: biochemical; settings: detergent/lipid micelle substrate; read-out: DGKα IC50
In short: (§1)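 Enzymes were baculovirus/Sf9 full-length human DGKα or DGKζ with His tag. The substrate was PS/DAG in octyl glucoside micelles, in MOPS pH 7.5 buffer with NaCl, MgCl2, CaCl2 and DTT.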

[2] = target: human DGKζ (Homo sapiens (Human), UniProt Q13574); experiment: DGKζ assay (detergent/lipid micelle substrate); assay type: biochemical; settings: detergent/lipid micelle substrate; read-out: DGKζ IC50
Sequence of human DGKζ (Q13574 other isoform, or with tags, fused parts or gaps): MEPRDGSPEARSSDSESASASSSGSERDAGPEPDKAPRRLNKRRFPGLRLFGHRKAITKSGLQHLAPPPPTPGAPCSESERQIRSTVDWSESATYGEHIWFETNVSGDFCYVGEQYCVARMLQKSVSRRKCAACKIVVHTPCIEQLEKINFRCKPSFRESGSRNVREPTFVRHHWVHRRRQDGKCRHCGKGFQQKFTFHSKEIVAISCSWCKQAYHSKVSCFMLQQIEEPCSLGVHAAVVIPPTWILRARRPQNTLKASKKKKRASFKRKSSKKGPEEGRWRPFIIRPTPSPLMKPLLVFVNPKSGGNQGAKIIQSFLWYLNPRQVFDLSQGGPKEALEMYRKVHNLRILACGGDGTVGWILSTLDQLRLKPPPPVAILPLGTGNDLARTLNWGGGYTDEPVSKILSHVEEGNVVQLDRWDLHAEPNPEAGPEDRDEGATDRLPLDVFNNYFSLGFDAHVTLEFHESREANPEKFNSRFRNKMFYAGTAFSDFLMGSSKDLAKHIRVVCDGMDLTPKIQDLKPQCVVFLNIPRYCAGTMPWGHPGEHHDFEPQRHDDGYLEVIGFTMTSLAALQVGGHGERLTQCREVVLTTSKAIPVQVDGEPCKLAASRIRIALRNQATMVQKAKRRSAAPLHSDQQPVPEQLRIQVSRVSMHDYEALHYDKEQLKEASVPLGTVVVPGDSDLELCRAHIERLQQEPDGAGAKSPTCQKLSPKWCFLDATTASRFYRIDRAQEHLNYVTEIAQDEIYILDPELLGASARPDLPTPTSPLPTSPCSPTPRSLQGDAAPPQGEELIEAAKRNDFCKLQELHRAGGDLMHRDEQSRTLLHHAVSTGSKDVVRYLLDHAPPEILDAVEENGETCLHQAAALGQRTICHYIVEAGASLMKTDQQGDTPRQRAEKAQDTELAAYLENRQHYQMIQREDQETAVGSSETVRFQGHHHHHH
In short: as §1

[3] = system: pre-activated CD4 T cells and Raji cells; experiment: Raji CD4 T Cell IL2 Assay; assay type: cell-based; settings: Homo sapiens, Raji

Sequence of human DGKα (P23743 other isoform, or with tags, fused parts or gaps): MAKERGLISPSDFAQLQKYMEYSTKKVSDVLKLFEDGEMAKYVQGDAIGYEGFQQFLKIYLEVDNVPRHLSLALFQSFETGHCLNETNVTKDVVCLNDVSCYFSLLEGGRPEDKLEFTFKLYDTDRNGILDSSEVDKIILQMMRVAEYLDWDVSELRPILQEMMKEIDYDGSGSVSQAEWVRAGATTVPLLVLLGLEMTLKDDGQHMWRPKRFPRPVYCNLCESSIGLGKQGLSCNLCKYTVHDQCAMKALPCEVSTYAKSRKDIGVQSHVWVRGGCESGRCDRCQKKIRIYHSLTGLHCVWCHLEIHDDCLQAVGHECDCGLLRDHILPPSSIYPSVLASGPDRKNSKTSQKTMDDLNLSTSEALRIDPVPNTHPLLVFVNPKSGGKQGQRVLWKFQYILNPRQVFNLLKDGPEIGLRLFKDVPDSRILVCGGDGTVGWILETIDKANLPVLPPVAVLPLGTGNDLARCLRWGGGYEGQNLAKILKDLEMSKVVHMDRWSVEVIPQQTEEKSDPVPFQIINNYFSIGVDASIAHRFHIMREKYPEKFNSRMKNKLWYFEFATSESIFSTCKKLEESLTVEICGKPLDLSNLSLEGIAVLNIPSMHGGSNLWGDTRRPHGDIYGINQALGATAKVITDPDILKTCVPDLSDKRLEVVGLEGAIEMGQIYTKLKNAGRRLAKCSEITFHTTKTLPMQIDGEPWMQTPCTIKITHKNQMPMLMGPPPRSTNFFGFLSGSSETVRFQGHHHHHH

| Compound | IC50 [1] | IC50 [2] | IC50 [3] |
| --- | --- | --- | --- |
| Cn1c(=O)c(C#N)c(N2CCN(Cc3cc(F)cc(Cl)c3)CC2)c2nc(Cl)ccc21 [Example 324, 6-chloro-4-{4-[(3-chloro-5-fluorophenyl)methyl]piperazin-1-yl}-1-methyl-2-oxo-1,2-dihydro-1,5-naphthyridine-3-carbonitrile] | 190 nM | > 240000 nM | 350 nM |
| Cn1c(=O)c(C#N)c(N2CCN(Cc3ccc(Cl)c(F)c3)CC2)c2nc(Cl)ccc21 [Example 326, 6-chloro-4-{4-[(4-chloro-3-fluorophenyl)methyl]piperazin-1-yl}-1-methyl-2-oxo-1,2-dihydro-1,5-naphthyridine-3-carbonitrile] | 1900 nM | > 240000 nM | 380 nM |
| COc1cccc(CN2CCN(c3c(C#N)c(=O)n(C)c4ccc(Cl)nc34)CC2)c1 [Example 327, 6-chloro-4-{4-[(3-methoxyphenyl)methyl]piperazin-1-yl}-1-methyl-2-oxo-1,2-dihydro-1,5-naphthyridine-3-carbonitrile] | 660 nM | 140000 nM | 430 nM |
| Cc1ccc(CN2CCN(c3c(C#N)c(=O)n(C)c4ccc(Cl)nc34)CC2)cc1O [Example 328, 6-chloro-4-{4-[(3-hydroxy-4-methylphenyl)methyl]piperazin-1-yl}-1-methyl-2-oxo-1,2-dihydro-1,5-naphthyridine-3-carbonitrile] | 1000 nM | 120000 nM | 440 nM |
| Cn1c(=O)c(C#N)c(N2CCN(Cc3cccc(F)c3F)CC2)c2nc(Cl)ccc21 [Example 330, 6-chloro-4-{4-[(2,3-difluorophenyl)methyl]piperazin-1-yl}-1-methyl-2-oxo-1,2-dihydro-1,5-naphthyridine-3-carbonitrile] | 3700 nM | > 240000 nM | 500 nM |
| COc1ccccc1CN1CCN(c2c(C#N)c(=O)n(C)c3ccc(Cl)nc23)CC1 [Example 331, 6-chloro-4-{4-[(2-methoxyphenyl)methyl]piperazin-1-yl}-1-methyl-2-oxo-1,2-dihydro-1,5-naphthyridine-3-carbonitrile] | 490 nM | > 240000 nM | 520 nM |
| Cn1c(=O)c(C#N)c(N2CCN(Cc3cccc4cn[nH]c34)CC2)c2nc(Br)ccc21 [Example 333, 6-bromo-4-{4-[(1H-indazol-7-yl)methyl]piperazin-1-yl}-1-methyl-2-oxo-1,2-dihydro-1,5-naphthyridine-3-carbonitrile] | 5000 nM | 230000 nM | 540 nM |
| Cc1ccc2c(n1)c(N1CCN(Cc3ccccc3O)CC1)c(C#N)c(=O)n2C [Example 337, 4-{4-[(2-hydroxyphenyl)methyl]piperazin-1-yl}-1,6-dimethyl-2-oxo-1,2-dihydro-1,5-naphthyridine-3-carbonitrile] | 65 nM | > 81000 nM | 550 nM |
| Cn1c(=O)c(C#N)c(N2CCN(Cc3ccccc3F)CC2)c2nc(Cl)ccc21 [Example 339, 6-chloro-4-{4-[(2-fluorophenyl)methyl]piperazin-1-yl}-1-methyl-2-oxo-1,2-dihydro-1,5-naphthyridine-3-carbonitrile] | 570 nM | > 240000 nM | 650 nM |
| COc1ccc(CN2CCN(c3c(C#N)c(=O)n(C)c4ccc(Cl)nc34)CC2)cc1 [Example 341, 6-chloro-4-{4-[(4-methoxyphenyl)methyl]piperazin-1-yl}-1-methyl-2-oxo-1,2-dihydro-1,5-naphthyridine-3-carbonitrile] | 320 nM | > 240000 nM | 730 nM |
| Cn1c(=O)c([N+](=O)[O-])c(N2CCN(C3(c4ccc(F)cc4)CC3)CC2)c2nc(C#N)ccc21 [Example 342, 8-{4-[1-(4-fluorophenyl)cyclopropyl]piperazin-1-yl}-5-methyl-7-nitro-6-oxo-5,6-dihydro-1,5-naphthyridine-2-carbonitrile] | 28000 nM | > 240000 nM | 790 nM |
| Cn1c(=O)c(C#N)c(N2CCN(Cc3ccccc3)CC2)c2nc(Cl)ccc21 [Example 343, 4-(4-benzylpiperazin-1-yl)-6-chloro-1-methyl-2-oxo-1,2-dihydro-1,5-naphthyridine-3-carbonitrile] | 68 nM | > 81000 nM | 810 nM |
| Cn1c(=O)c(C#N)c(N2CCN(Cc3ccccc3F)CC2)c2nc(Br)ccc21 [Example 344, 6-bromo-4-{4-[(2-fluorophenyl)methyl]piperazin-1-yl}-1-methyl-2-oxo-1,2-dihydro-1,5-naphthyridine-3-carbonitrile] | 400 nM | > 240000 nM | 820 nM |
| Cn1c(=O)c(C#N)c(N2CCN(Cc3cc(O)cc(Cl)c3)CC2)c2nc(Cl)ccc21 [Example 345, 6-chloro-4-{4-[(3-chloro-5-hydroxyphenyl)methyl]piperazin-1-yl}-1-methyl-2-oxo-1,2-dihydro-1,5-naphthyridine-3-carbonitrile] | 4600 nM | > 240000 nM | 990 nM |
| Cc1ccccc1CN1CCN(c2c(C#N)c(=O)n(C)c3ccc(Cl)nc23)CC1 [Example 346, 6-chloro-1-methyl-4-{4-[(2-methylphenyl)methyl]piperazin-1-yl}-2-oxo-1,2-dihydro-1,5-naphthyridine-3-carbonitrile] | 5300 nM | > 240000 nM | 1100 nM |
| Cn1c(=O)c(C#N)c(N2CCN(Cc3ccc(F)c(O)c3)CC2)c2nc(Cl)ccc21 [Example 348, 6-chloro-4-{4-[(4-fluoro-3-hydroxyphenyl)methyl]piperazin-1-yl}-1-methyl-2-oxo-1,2-dihydro-1,5-naphthyridine-3-carbonitrile] | 220 nM | 140000 nM | 1300 nM |
| Cn1c(=O)c(C#N)c(N2CCN(Cc3ccc(F)cc3F)CC2)c2nc(Cl)ccc21 [Example 350, 6-chloro-4-{4-[(2,4-difluorophenyl)methyl]piperazin-1-yl}-1-methyl-2-oxo-1,2-dihydro-1,5-naphthyridine-3-carbonitrile] | 1200 nM | > 81000 nM | 1500 nM |
| Cn1c(=O)c(C#N)c(N2CCN(Cc3cccc(O)c3)CC2)c2nc(Cl)ccc21 [Example 351, 6-chloro-4-{4-[(3-hydroxyphenyl)methyl]piperazin-1-yl}-1-methyl-2-oxo-1,2-dihydro-1,5-naphthyridine-3-carbonitrile] | 360 nM | 190000 nM | 1500 nM |
| COc1cccc(CN2CCN(c3c(C#N)c(=O)n(C)c4ccc(C)nc34)CC2)c1O [Example 352, 4-{4-[(2-hydroxy-3-methoxyphenyl)methyl]piperazin-1-yl}-1,6-dimethyl-2-oxo-1,2-dihydro-1,5-naphthyridine-3-carbonitrile] | 700 nM | > 81000 nM | 1600 nM |
| COc1ccc(CN2CCN(c3c(C#N)c(=O)n(C)c4ccc(Cl)nc34)CC2)cc1O [Example 353, 6-chloro-4-{4-[(3-hydroxy-4-methoxyphenyl)methyl]piperazin-1-yl}-1-methyl-2-oxo-1,2-dihydro-1,5-naphthyridine-3-carbonitrile] | 65 nM | > 240000 nM | 1900 nM |
| Cn1c(=O)c(C#N)c(N2CCN(Cc3ccc(O)c(Cl)c3)CC2)c2nc(Cl)ccc21 [Example 354, 6-chloro-4-{4-[(3-chloro-4-hydroxyphenyl)methyl]piperazin-1-yl}-1-methyl-2-oxo-1,2-dihydro-1,5-naphthyridine-3-carbonitrile] | 110 nM | > 240000 nM | 2500 nM |
| Cn1c(=O)c(C#N)c(N2CCN(Cc3ccc(O)c(C(F)(F)F)c3)CC2)c2nc(Cl)ccc21 [Example 355, 6-chloro-4-(4-{[4-hydroxy-3-(trifluoromethyl)phenyl]methyl}piperazin-1-yl)-1-methyl-2-oxo-1,2-dihydro-1,5-naphthyridine-3-carbonitrile] | 7100 nM | > 240000 nM | 2800 nM |
| Cc1cc(CN2CCN(c3c(C#N)c(=O)n(C)c4ccc(Cl)nc34)CC2)ccc1O [Example 356, 6-chloro-4-{4-[(4-hydroxy-3-methylphenyl)methyl]piperazin-1-yl}-1-methyl-2-oxo-1,2-dihydro-1,5-naphthyridine-3-carbonitrile] | 300 nM | > 240000 nM | 3000 nM |
| Cn1c(=O)c(C#N)c(N2CCN(Cc3cccc4nc[nH]c34)CC2)c2nc(Cl)ccc21 [Example 359, 4-{4-[(1H-1,3-benzodiazol-7-yl)methyl]piperazin-1-yl}-6-chloro-1-methyl-2-oxo-1,2-dihydro-1,5-naphthyridine-3-carbonitrile] | 19000 nM | > 240000 nM | 8000 nM |
| Cn1c(=O)c(C#N)c(N2CCN(Cc3cccc4nc[nH]c34)CC2)c2nc(Br)ccc21 [Example 360] | 48000 nM | > 240000 nM | 9600 nM |
| Cn1c(=O)c(C#N)c(N2CCN(Cc3cc(Cl)cc(Cl)c3O)CC2)c2nc(Br)ccc21 [Example 366, 6-bromo-4-{4-[(3,5-dichloro-2-hydroxyphenyl)methyl]piperazin-1-yl}-1-methyl-2-oxo-1,2-dihydro-1,5-naphthyridine-3-carbonitrile] | 1300 nM | 160000 nM | > 100000 nM |
| Cn1c(=O)c(C#N)c(N2CCN(Cc3cc(Cl)ccc3O)CC2)c2nc(Br)ccc21 [Example 367, 6-bromo-4-{4-[(5-chloro-2-hydroxyphenyl)methyl]piperazin-1-yl}-1-methyl-2-oxo-1,2-dihydro-1,5-naphthyridine-3-carbonitrile] | 220 nM | > 240000 nM | > 100000 nM |
| COc1cccc(CN2CCN(c3c(C#N)c(=O)n(C)c4ccc(Br)nc34)CC2)c1O [Example 368, 6-bromo-4-{4-[(2-hydroxy-3-methoxyphenyl)methyl]piperazin-1-yl}-1-methyl-2-oxo-1,2-dihydro-1,5-naphthyridine-3-carbonitrile] | 400 nM | > 240000 nM | > 100000 nM |

Source: patent publication US11866430B2, “Naphthyridinone compounds useful as T cell activators” (priority 2018, dated 2024)
